Data on one substance can be found in patent US20110144565A1, “COMBINATION OF A TILIROSIDE AND A PEPTIDE” (LABORATOIRES CLARINS, priority 2008, published 2011).

The subject of the assay is collagen type I synthesis in normal adult human fibroblasts. Put plainly: Immunolocalization of collagen type I in normal adult human fibroblasts (immunofluorescence, image analysis). The class given is cell-based. As to conditions: 2×10^−3% palmitoyl lysine-valine-5 diaminohydroxybutyrate (P1), 72 hours, Anova. The protocol:
The fibroblasts were seeded into 6-well plates with a glass coverslip in a proportion of 70 000 cells per dish, in MEM (Minimum Essential Medium). […] Each cell layer was then rinsed and fixed with methanol (−20° C.) before visualizing the collagen type I by immunofluorescence. […] The incubation time between each antibody is 1 hour. The cell nuclei are visualized by means of Dapi labeling. The coverslips are mounted on glass slides and then observed under a fluorescence microscope (Nikon Eclipse 50i). Photographs are taken of several fields of the cell population. The TRITC fluorescence images indicate the regions of localization of collagen type I. The DAPI fluorescence images indicate the cell nuclei and therefore the number of cells per field. The photographic images are analyzed using the Lucia image analysis software. The intensity of collagen labeling was observed on 14 and 15 photographic images according to the conditions. This fluorescence intensity is related to the number of cells per image. The differences in mean between the populations were studied by analysis of variance (Anova). This method uses measurements of variance in order to determine the significant or nonsignificant nature of the differences in mean measured on the populations.

For “palmitoyl lysine-valine-5 diaminohydroxybutyrate”, the “collagen type I labeling (fluorescence intensity related to the number of cells) compared with the nontreated control” value is listed as “statistically significant (p<0.0001) increase in collagen”.
